Source: US20140121216A1, “INDOLEAMINE DERIVATIVES FOR THE TREATMENT OF CENTRAL NERVOUS SYSTEM DISEASES” (Adamed Sp. z o.o., priority 2011, published 2014)
One block for each compound: values may come before it.

What was measured:
[1] = system: α1 adrenergic receptors (rat cerebral cortex); experiment: Binding assay, α1 adrenergic receptor ([3H]prazosin); details: compound 1×10^−6 M
Protocol: (§1) The specific ligand binding to the receptors is defined as the difference between the total binding and the non-specific binding determined in the presence of an excess of unlabelled ligand.
(§2) The inhibition constants (Ki) were calculated using the Cheng Prusoff equation (Ki=IC50/(1+(L/KD)), where L=concentration of radioligand in the assay, and KD=affinity of the radioligand for the receptor). A Scatchard plot is used to determine the Kd. The IC50 values (concentration causing a half-maximal inhibition of control specific binding) and Hill coefficients (nH) were determined by non-linear regression analysis of the competition curves generated with mean replicate values using Hill equation curve fitting (Y=D+[(A−D)/(1+(C/C50)^nH)], where Y=specific binding, D=minimum specific binding, A=maximum specific binding, C=compound concentration, C50=IC50, and nH=slope factor). This analysis was performed using a software developed at Cerep (Hill software) and validated by comparison with data generated by the commercial software SigmaPlot® 4.0 for Windows® (©1997 by SPSS Inc.).
Experimental conditions for tests are given in Table 7, and results of tests for representative compounds are given in Tables 8a and 8b (α1 receptors) and in Tables 9a and 9b (α2C receptors).

[2] = molecular target: T1, D2S (h), human recombinant (HEK-293 cells) (Homo sapiens, UniProt P14416); experiment: Cellular functional assay D2S (h) agonism; type: cell-based; details: HEK293; compound 1×10^−6 M; control 3 μM dopamine; read-out: D2-ag [%]
T1 construct: expressed in transfected cells; host or cells: HEK-293 cells
T1 sequence (P14416 1-414 isoform P14416-2): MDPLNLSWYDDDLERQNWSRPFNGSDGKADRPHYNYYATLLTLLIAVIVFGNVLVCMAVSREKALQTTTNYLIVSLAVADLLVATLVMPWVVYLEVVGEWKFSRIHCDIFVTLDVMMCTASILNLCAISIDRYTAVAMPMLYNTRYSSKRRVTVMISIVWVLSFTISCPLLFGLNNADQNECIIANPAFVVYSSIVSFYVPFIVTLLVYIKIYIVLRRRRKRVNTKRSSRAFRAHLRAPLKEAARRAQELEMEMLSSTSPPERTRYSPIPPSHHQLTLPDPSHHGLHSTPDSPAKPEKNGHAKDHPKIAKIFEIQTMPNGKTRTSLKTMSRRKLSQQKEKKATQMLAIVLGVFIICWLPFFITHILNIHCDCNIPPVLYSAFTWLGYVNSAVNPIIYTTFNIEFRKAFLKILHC
Protocol: (§3) The results are expressed as a percent of control specific agonist response ((measured specific response/control specific agonist response)×100) obtained in the presence of tested compound.
(§4) The EC50 values (concentration producing a half-maximal specific response) and IC50 values (concentration causing a half-maximal inhibition of the control specific agonist response) were determined by non-linear regression analysis of the concentration-response curves generated with mean replicate values using Hill equation curve fitting (Y=D+[(A−D)/(1+(C/C50)nH)], where Y=specific response, D=minimum specific response, A=maximum specific response, C=compound concentration, and C50=EC50 or IC50, and nH=slope factor).
(§5) For the antagonists, the apparent dissociation constants (Kb) were calculated using the modified Cheng Prusoff equation (Kb=IC50/(1+(A/EC50A)), where A=concentration of reference agonist in the assay, and EC50A=EC50 value of the reference agonist).

[3] = molecular target: T2, 5-HT6 (h), human recombinant (CHO cells) (Homo sapiens, UniProt P50406); experiment: Cellular functional assay 5-HT6 (h) antagonism; type: cell-based; details: compound 1×10^−6 M, stimulus serotonin 100 nM, read-out: 5-HT6-antag [%]
T2 construct: expressed in transfected cells; host or cells: CHO cells
T2 sequence (P50406 whole entry): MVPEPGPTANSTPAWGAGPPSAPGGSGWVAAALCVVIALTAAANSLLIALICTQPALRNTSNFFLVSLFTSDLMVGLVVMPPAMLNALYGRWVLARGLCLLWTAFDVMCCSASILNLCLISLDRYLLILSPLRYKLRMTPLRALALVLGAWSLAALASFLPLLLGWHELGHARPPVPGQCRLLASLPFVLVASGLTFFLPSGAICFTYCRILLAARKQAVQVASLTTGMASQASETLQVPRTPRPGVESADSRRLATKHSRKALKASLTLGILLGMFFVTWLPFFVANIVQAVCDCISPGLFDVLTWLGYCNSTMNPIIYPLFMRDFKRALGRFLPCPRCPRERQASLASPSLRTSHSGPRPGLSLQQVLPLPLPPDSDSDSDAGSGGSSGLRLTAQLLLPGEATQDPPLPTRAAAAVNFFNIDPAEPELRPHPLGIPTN
Protocol: as §3, §4, §5

[4] = molecular target: T2, 5-HT6 (h), human recombinant (CHO cells); experiment: Cellular functional assay 5-HT6 (h) agonism; type: cell-based; details: compound 1×10^−6 M, control 10 μM serotonin, read-out: 5-HT6-ag [%]
Protocol: as §3, §4, §5

[5] = molecular target: T1, D2S (h), human recombinant (HEK-293 cells); experiment: Cellular functional assay D2S (h) antagonism; type: cell-based; details: HEK293; compound 1×10^−6 M; stimulus dopamine 30 nM; read-out: D2-antag [%]
Protocol: as §3, §4, §5

[6] = molecular target: 5-HT2A receptor, human recombinant (Homo sapiens, UniProt P28223); experiment: Binding assay, 5-HT2A receptor ([3H]ketanserin); design: purchased PerkinElmer; details: compound 1×10^−6 M
Chain of 5-HT2A receptor, human recombinant (P28223 whole entry): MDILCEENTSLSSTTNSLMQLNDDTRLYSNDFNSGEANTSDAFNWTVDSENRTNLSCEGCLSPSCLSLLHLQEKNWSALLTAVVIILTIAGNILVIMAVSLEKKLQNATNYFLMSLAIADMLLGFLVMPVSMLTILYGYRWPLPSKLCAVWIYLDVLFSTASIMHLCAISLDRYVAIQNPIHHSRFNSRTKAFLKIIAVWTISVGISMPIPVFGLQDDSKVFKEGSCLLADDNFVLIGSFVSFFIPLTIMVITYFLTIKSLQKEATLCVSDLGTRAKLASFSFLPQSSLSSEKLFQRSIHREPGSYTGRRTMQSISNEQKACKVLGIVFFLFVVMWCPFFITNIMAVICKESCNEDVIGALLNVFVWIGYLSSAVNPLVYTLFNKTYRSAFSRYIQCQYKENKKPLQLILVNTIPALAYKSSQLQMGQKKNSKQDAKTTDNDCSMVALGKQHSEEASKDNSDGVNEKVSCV
Protocol: (§6) Moreover, ability of the compounds of the invention to block potassium channel hERG was tested.
as §1
as §2, with “factor).” for “factor). This analysis was performed using a software developed at Cerep (Hill software) and validated by comparison with data generated by the commercial software SigmaPlot® 4.0 for Windows® (©1997 by SPSS Inc.).”

[7] = molecular target: T3, 5-HT7 receptor, human recombinant (Homo sapiens, UniProt P34969); experiment: Binding assay, 5-HT7 receptor ([3H]LSD); details: compound 1×10^−6 M
T3 construct: purchased PerkinElmer
T3 sequence (P34969 whole entry): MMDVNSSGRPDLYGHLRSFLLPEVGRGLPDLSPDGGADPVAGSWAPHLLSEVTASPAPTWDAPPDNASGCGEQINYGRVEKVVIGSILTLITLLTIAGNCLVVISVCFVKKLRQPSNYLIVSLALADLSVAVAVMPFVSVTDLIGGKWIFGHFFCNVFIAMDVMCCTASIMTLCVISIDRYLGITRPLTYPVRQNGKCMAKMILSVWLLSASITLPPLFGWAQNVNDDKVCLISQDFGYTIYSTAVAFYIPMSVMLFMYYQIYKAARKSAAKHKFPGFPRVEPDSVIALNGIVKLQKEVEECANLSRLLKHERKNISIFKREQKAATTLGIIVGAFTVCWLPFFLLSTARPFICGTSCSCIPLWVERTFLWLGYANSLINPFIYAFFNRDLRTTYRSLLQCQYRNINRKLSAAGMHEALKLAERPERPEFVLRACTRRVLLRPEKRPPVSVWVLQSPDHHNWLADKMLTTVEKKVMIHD
Protocol: as §6, §1
as §2, with “factor).” for “factor). This analysis was performed using a software developed at Cerep (Hill software) and validated by comparison with data generated by the commercial software SigmaPlot® 4.0 for Windows® (©1997 by SPSS Inc.).”

[8] = molecular target: T4, D2 receptor, human recombinant (GeneBLAzer D2-Gqo5 CHO-K1 DA) (Homo sapiens, UniProt P14416); experiment: Binding assay, dopaminergic D2 receptor ([3H]methylspiperone); details: compound 1×10^−6 M
T4 construct: purchased Invitrogen; host or cells: CHO-K1 (GeneBLAzer D2-Gqo5 CHO-K1 DA)
T4 sequence (P14416 whole entry): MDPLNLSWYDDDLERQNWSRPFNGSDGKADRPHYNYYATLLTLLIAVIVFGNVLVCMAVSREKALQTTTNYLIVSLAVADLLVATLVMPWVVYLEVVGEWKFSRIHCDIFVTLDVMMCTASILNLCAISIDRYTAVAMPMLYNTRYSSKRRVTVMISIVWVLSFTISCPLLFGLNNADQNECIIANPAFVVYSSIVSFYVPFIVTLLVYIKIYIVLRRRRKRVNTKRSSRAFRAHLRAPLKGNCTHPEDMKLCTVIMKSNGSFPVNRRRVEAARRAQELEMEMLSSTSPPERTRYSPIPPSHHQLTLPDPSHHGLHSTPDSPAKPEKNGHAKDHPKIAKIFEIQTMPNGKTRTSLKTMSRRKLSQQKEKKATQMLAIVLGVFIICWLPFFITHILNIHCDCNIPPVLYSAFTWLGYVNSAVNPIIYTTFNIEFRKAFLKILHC
Protocol: as §6, §1
as §2, with “factor).” for “factor). This analysis was performed using a software developed at Cerep (Hill software) and validated by comparison with data generated by the commercial software SigmaPlot® 4.0 for Windows® (©1997 by SPSS Inc.).”

[9] = molecular target: T5, 5-HT6 receptor, human recombinant (Homo sapiens, UniProt P50406); experiment: Binding assay, 5-HT6 receptor ([3H]LSD); details: compound 1×10^−6 M
T5 construct: purchased PerkinElmer
T5 sequence (P50406 whole entry): as the sequence (P50406 whole entry) above
Protocol: as §6, §1
as §2, with “factor).” for “factor). This analysis was performed using a software developed at Cerep (Hill software) and validated by comparison with data generated by the commercial software SigmaPlot® 4.0 for Windows® (©1997 by SPSS Inc.).”

[10] = molecular target: T6, 5-HT1A receptor (rat hippocampus) (Rattus norvegicus, UniProt P19327); experiment: Binding assay, 5-HT1A receptor ([3H]8-OH-DPAT); details: compound 1×10^−6 M
T6 construct: hippocampus; from tissue; host or cells: rat hippocampus
T6 sequence (P19327 1-422): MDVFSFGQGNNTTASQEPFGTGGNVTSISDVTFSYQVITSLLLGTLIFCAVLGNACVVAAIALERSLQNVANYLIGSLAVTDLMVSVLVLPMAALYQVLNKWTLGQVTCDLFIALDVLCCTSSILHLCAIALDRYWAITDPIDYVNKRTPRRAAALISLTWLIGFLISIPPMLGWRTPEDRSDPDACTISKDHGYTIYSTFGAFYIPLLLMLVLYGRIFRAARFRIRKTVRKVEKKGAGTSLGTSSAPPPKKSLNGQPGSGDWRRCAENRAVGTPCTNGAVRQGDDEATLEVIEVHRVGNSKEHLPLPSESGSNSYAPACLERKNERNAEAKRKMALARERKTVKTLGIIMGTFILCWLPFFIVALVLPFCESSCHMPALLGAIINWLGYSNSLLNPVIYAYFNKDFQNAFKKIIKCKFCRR
Protocol: as §6, §1
as §2, with “factor).” for “factor). This analysis was performed using a software developed at Cerep (Hill software) and validated by comparison with data generated by the commercial software SigmaPlot® 4.0 for Windows® (©1997 by SPSS Inc.).”

[11] = molecular target: T7, human recombinant SERT receptor (CHO cells) (Homo sapiens, UniProt P31645); experiment: Binding assay, serotonine transporter (SERT) ([3H]imipramine); details: compound 1×10^−6 M
T7 construct: expressed in transfected cells; host or cells: CHO cells
T7 sequence (P31645 whole entry): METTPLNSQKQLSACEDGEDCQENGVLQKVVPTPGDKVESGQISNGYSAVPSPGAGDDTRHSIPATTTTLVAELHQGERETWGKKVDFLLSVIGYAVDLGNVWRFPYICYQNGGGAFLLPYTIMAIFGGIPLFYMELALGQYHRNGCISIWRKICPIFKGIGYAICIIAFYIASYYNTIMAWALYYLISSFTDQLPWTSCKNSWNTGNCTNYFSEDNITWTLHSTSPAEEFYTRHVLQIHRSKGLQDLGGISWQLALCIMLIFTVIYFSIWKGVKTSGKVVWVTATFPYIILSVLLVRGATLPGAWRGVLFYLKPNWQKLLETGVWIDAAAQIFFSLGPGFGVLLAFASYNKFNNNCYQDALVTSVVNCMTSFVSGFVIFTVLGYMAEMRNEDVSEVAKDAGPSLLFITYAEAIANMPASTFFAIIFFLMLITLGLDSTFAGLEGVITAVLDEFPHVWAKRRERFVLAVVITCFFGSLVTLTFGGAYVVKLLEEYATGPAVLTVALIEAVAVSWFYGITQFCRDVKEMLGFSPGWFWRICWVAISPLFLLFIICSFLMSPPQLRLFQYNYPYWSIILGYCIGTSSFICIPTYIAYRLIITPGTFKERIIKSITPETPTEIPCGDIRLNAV
Protocol: as §6, §1
as §2, with “factor).” for “factor). This analysis was performed using a software developed at Cerep (Hill software) and validated by comparison with data generated by the commercial software SigmaPlot® 4.0 for Windows® (©1997 by SPSS Inc.).”

[12] = molecular target: T8, human recombinant D3 receptors (Homo sapiens, UniProt P35462); experiment: Binding assay, dopaminergic D3 receptor ([3H]methylspiperone); details: compound 1×10^−6 M
T8 construct: purchased PerkinElmer
T8 sequence (P35462 whole entry): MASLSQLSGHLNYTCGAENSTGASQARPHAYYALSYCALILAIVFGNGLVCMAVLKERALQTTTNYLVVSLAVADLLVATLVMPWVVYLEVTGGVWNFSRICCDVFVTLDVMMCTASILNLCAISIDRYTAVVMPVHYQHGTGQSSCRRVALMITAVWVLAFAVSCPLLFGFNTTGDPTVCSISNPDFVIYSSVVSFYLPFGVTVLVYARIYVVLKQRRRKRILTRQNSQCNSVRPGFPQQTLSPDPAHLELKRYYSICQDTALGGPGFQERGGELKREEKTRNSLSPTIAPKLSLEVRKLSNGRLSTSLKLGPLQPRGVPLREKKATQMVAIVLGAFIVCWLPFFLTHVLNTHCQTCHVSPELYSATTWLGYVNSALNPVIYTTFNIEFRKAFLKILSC
Protocol: as §6, §1
as §2, with “factor).” for “factor). This analysis was performed using a software developed at Cerep (Hill software) and validated by comparison with data generated by the commercial software SigmaPlot® 4.0 for Windows® (©1997 by SPSS Inc.).”

Compound: O=S(=O)(c1ccccc1)n1ccc2c(N3CCN(CCCOc4ccc5ccoc5c4)CC3)cccc21 [Compound 25, 4-(4-(3-(Benzofuran-6-yloxy)propyl)piperazin-1-yl)-1-(phenylsulphonyl)-1H-indole]
- activation at 1 µM [2]: 30%
- inhibition at 1 µM [3]: 98%
- activation at 1 µM [4]: -4%
- α1 [%] affinity test result [1]: 25%
- inhibition at 1 µM [5]: 75%

Compound: CC(C)Oc1ccccc1OCCCCN1CCN(c2cccc3c2ccn3S(=O)(=O)c2ccccc2)CC1 [Compound 71, 1-(Benzenesulfonyl)-4-[4-[4-(2-isopropoxyphenoxy)butyl]-piperazin-1-yl]indole]
- α1 [%] affinity test result [1]: 40%

Compound: O=C1CCc2ccc(OCCCCN3CCN(c4cccc5c4ccn5Cc4ccccc4F)CC3)cc2N1 [Compound 61, 7-[4-[4-[1-[(2-Fluorophenyl)methyl]indol-4-yl]piperazin-1-yl]butoxy]-3,4-dihydro-1H-quinolin-2-one]
- α1 [%] affinity test result [1]: 13%

Compound: O=S(=O)(c1ccccc1)n1ccc2c(N3CCN(CCCCOc4ccccc4)CC3)cccc21 [Compound 69, 1(Benzenesulfonyl)-4-[4-(4-phenoxybutyl)piperazin-1-yl]indole]
- α1 [%] affinity test result [1]: 49%

Compound: O=S(=O)(c1ccccc1)n1ccc2c(N3CCN(CCCCOc4ccc(F)cc4)CC3)cccc21 [Compound 70, 1-(Benzenesulfonyl)-4-[4-[4-(4-fluorophenoxy)butyl]piperazin-1-yl]-indole]
- α1 [%] affinity test result [1]: 54%

Compound: CC(C)Oc1ccccc1OCCCN1CCN(c2cccc3c2ccn3S(=O)(=O)c2ccccc2)CC1 [Compound 21, 4-(4-(3-(2-(1-Methylethoxy)phenoxy)propyl)piperazin-1-0)-1-(phenylsulphonyl)-1H-indole]
- 5-HT2A [%] binding assay result [6]: 80%
- 5-HT7 [%] binding assay result [7]: 78%
- D2 [%] binding assay result [8]: 90%
- 5-HT6 [%] binding assay result [9]: 97%
- 5-HT1A [%] binding assay result [10]: 91%
- α1 [%] affinity test result [1]: 83%
- SERT [%] affinity test result [11]: 13%
- D3 [%] binding assay result [12]: 86%

Compound: O=S(=O)(c1ccccc1)n1ccc2c(N3CCN(CCCOc4ccccc4)CC3)cccc21 [Compound 12, 4-(4-(3-Phenoxypropyl)piperazin-1-yl)-1-(phenylsulphonyl)-1H-indole]
- activation at 1 µM [2]: 11%
- inhibition at 1 µM [3]: 73%
- activation at 1 µM [4]: -2%
- α1 [%] affinity test result [1]: 83%
- inhibition at 1 µM [5]: 73%

Compound: O=C1CCc2ccc(OCCCCN3CCN(c4cccc5c4ccn5Cc4ccc(F)cc4)CC3)cc2N1 [Compound 65, 7-[4-[4-[1-[(4-Fluorophenyl)methyl]indol-4-yl]piperazin-1-yl]butoxy]-3,4-dihydro-1H-quinolin-2-one]
- α1 [%] affinity test result [1]: 59%

Second part, the compound after the results:

- α1 [%] affinity test result [1]: 42%
Compound: NC(=O)c1ccccc1OCCCN1CCN(c2cccc3c2ccn3Cc2ccc(F)cc2)CC1 [Compound 66, 2-[3-[4-[1-[(4-Fluorophenyl)methyl]indol-4-yl]piperazin-1-yl]propoxy]-benzamide]

- activation at 1 µM [2]: 11%
- inhibition at 1 µM [3]: 88%
- activation at 1 µM [4]: 0%
- α1 [%] affinity test result [1]: 93%
- inhibition at 1 µM [5]: 68%
Compound: O=S(=O)(c1ccccc1)n1ccc2c(N3CCN(CCCOc4ccc(F)cc4)CC3)cccc21 [Compound 15, 4-(4-(3-(4-Fluorophenoxy)propyl)piperazin-1-yl)-1-(phenylsulphonyl)-1H-indole]

- α1 [%] affinity test result [1]: 57%
Compound: NC(=O)c1ccccc1OCCCN1CCN(c2cccc3c2ccn3Cc2cccc(F)c2)CC1 [Compound 64, 2-[3-[4-[1-[(3-Fluorophenyl)methyl]indol-4-yl]piperazin-1-yl]propoxy]-benzamide]

- α1 [%] affinity test result [1]: 50%
Compound: NC(=O)c1ccccc1OCCCN1CCN(c2cccc3c2ccn3Cc2ccccc2F)CC1 [Compound 62, 2-[3-[4-[1-[(2-Fluorophenyl)methyl]indol-4-yl]piperazin-1-yl]propoxy]-benzamide]

- α1 [%] affinity test result [1]: 56%
Compound: NC(=O)c1ccccc1OCCCN1CCN(c2cccc3c2ccn3Cc2cccc(Cl)c2)CC1 [Compound 68, 2-[3-[4-[1-[(3-Chlorophenyl)methyl]indol-4-yl]piperazin-1-yl]propoxy]-benzamide]

- α1 [%] affinity test result [1]: 56%
Compound: NC(=O)c1ccccc1OCCCN1CCN(c2cccc3c2ccn3Cc2ccccc2)CC1 [Compound 60, 2-[3-[4-(1-Benzylindol-4-yl)piperazin-1-yl]propoxy]benzamide]
